Reference: patent US12042564B2, “Therapeutic solid dosage forms” (CYBIN UK LTD, priority 2020, dated 2024)
Several values for one entry are separate records, joined by “and”; a condition that tells them apart may be missing. Equal values may be shown once. Marks after values point to notes of the source that are not given here.

Experiments:
[1] = test system: Human (mixed gender) hepatocytes; assay: In vitro intrinsic clearance of DMT and deuterated blends in human hepatocytes; assay type: in vitro ADME
Experimental: Use of Human Hepatocytes to Assess the In Vitro Intrinsic Clearance of Deuterated DMT Analogue Blends Relative to DMT
To use human hepatocytes to assess the in vitro intrinsic clearance of deuterated DMT analogue blends relative to DMT.
Test compounds were mixed with the hepatocyte suspension within a 96-well plate and incubated for up to 60 minutes at 37° C. The suspension was continuously agitated. At 7 time points, small aliquots were withdrawn, and the test compound/blend concentration therein was measured by LC-MS/MS.
Intrinsic clearance and half-life values were calculated for DMT and the 6 deuterated mixtures described above.

[2] = Plasma IAA metabolite levels after oral dosing in rats; conditions: for Mean IAA Cmax: rat plasma IAA (semi quantified) after 25 mg/kg PO of the compound; for Mean IAA tmax: rat plasma IAA after 25 mg/kg PO of the compound; for Estimated IAA Concentration / Estimated IAA Concentration, Mean: rat plasma, PO Dose (25 mg/kg); for Estimated IAA Concentration: individual animal; for Estimated IAA Concentration, Mean: mean of animals; for IAA biosynthesis compared to SPL026: rat, PO dosing
[3] = Plasma pharmacokinetics of test compound after oral dosing in rats; conditions: for mean Cmax / Determined Concentration of test compound in plasma / Determined Concentration of test compound in plasma, Mean: rat plasma; for mean Cmax: 25 mg/kg single oral gavage; for Determined Concentration of test compound in plasma / Determined Concentration of test compound in plasma, Mean: oral dosing; for Determined Concentration of test compound in plasma: individual animal; for Determined Concentration of test compound in plasma, Mean: mean of 3 animals; for systemic exposure compared to SPL026: rat, oral (PO) dosing
[4] = test system: human liver mitochondrial fraction; assay: Intrinsic clearance and half-life in human liver mitochondrial fraction; assay type: in vitro ADME; conditions: 0.5 mg/mL human liver mitochondrial fraction, 1 μM test compounds; for Half-life (min) R1: 5 μM Serotonin and Benzylamine controls, replicate 1; for Half-life (min) Mean / Half-life (min) R3 / Half-life (min) R4: 5 μM controls; for Half-life (min) Mean: mean of replicates; for Half-life (min) R3: replicate 3; for Half-life (min) R4: replicate 4
Text: (§1) Use of Liver Mitochondrial Fraction to Model Human Metabolism of Deuterated DMT

[5] = as above; assay type: in vitro ADME; conditions: 0.5 mg/mL human liver mitochondrial fraction; 1 μM test compounds, 5 μM controls; mean of replicates
Text: as §1

[6] = 10 min, fumarate salt, 25 mg/kg
[7] = 15 min, fumarate salt, 25 mg/kg
[8] = 30 min, fumarate salt, 25 mg/kg
[9] = 45 min, fumarate salt, 25 mg/kg
[10] = 60 min, fumarate salt, 25 mg/kg
[11] = 120 min, fumarate salt, 25 mg/kg
[12] = 180 min, fumarate salt, 25 mg/kg

O=C(O)/C=C/C(=O)O.[2H]C([2H])(Cc1c[nH]c2ccccc12)N(C)C [SPL028i, (96.6%) α,α,-dideutero-N,N-dimethyltryptamine fumarate salt]
half-life compared to undeuterated-DMT [1]: nearly doubling | intrinsic clearance rate compared to undeuterated-DMT [1]: almost halved | Mean IAA Cmax ([2]; fumarate salt): 2.933 ng/mL and 2.993 ng/mL | Mean IAA tmax [2]: 45 min | Estimated IAA Concentration ([2]; 1 min): BLQ | Estimated IAA Concentration, Mean ([2]; 1 min): BLQ | Estimated IAA Concentration ([2]; 5 min, fumarate salt, 25 mg/kg): 0.523 ng/mL and 0.874 ng/mL and 0.503 ng/mL | Estimated IAA Concentration, Mean ([2]; 5 min): 0.633 ng/mL | Estimated IAA Concentration [2, 6]: 1.24 ng/mL and 1.84 ng/mL and 1.34 ng/mL | Estimated IAA Concentration, Mean ([2]; 10 min): 1.473 ng/mL | Estimated IAA Concentration [2, 7]: 2.41 ng/mL and 0.749 ng/mL and 1.97 ng/mL | Estimated IAA Concentration, Mean ([2]; 15 min): 1.709 ng/mL | Estimated IAA Concentration [2, 8]: 3.53 ng/mL and 2.10 ng/mL and 2.18 ng/mL | Estimated IAA Concentration, Mean ([2]; 30 min): 2.606 ng/mL | Estimated IAA Concentration [2, 9]: 4.67 ng/mL and 1.95 ng/mL and 2.35 ng/mL | Estimated IAA Concentration, Mean ([2]; 45 min): 2.993 ng/mL | Estimated IAA Concentration [2, 10]: 2.78 ng/mL and 1.59 ng/mL and 1.50 ng/mL | Estimated IAA Concentration, Mean ([2]; 60 min): 1.955 ng/mL | Estimated IAA Concentration [2, 11]: 2.94 ng/mL and 1.42 ng/mL and 1.81 ng/mL | Estimated IAA Concentration, Mean ([2]; 120 min): 2.055 ng/mL | Estimated IAA Concentration [2, 12]: 2.09 ng/mL and 0.898 ng/mL and 1.45 ng/mL | Estimated IAA Concentration, Mean ([2]; 180 min): 1.480 ng/mL | Estimated IAA Concentration ([2]; Predose): BLQ | Estimated IAA Concentration, Mean ([2]; Predose): BLQ | IAA biosynthesis compared to SPL026 [2]: significant decrease | mean Cmax [3]: 54.3 ng/mL | Determined Concentration of test compound in plasma ([3]; 1 min): BLQ (Below the lower limit of quantification 0.310 ng/mL) | Determined Concentration of test compound in plasma, Mean ([3]; 1 min): BLQ (Below the lower limit of quantification 0.310 ng/mL) | Determined Concentration of test compound in plasma ([3]; 5 min, fumarate salt): 0.865 ng/mL and 5.85 ng/mL and 0.688 ng/mL | Determined Concentration of test compound in plasma, Mean ([3]; 5 min): 2.5 ng/mL | Determined Concentration of test compound in plasma ([3]; 10 min, fumarate salt): 2.42 ng/mL and 49.2 ng/mL and 6.72 ng/mL | Determined Concentration of test compound in plasma, Mean ([3]; 10 min): 19.4 ng/mL | Determined Concentration of test compound in plasma ([3]; 15 min, fumarate salt): 7.46 ng/mL and 34.3 ng/mL and 19.0 ng/mL | Determined Concentration of test compound in plasma, Mean ([3]; 15 min): 20.3 ng/mL | Determined Concentration of test compound in plasma ([3]; 30 min, fumarate salt): 22.6 ng/mL (2×) and 46.4 ng/mL | Determined Concentration of test compound in plasma, Mean ([3]; 30 min): 30.5 ng/mL | Determined Concentration of test compound in plasma ([3]; 45 min, fumarate salt): 22.6 ng/mL and 33.1 ng/mL and 43.7 ng/mL | Determined Concentration of test compound in plasma, Mean ([3]; 45 min): 33.1 ng/mL | Determined Concentration of test compound in plasma ([3]; 60 min, fumarate salt): 30.5 ng/mL and 32.1 ng/mL and 53.1 ng/mL | Determined Concentration of test compound in plasma, Mean ([3]; 60 min): 38.6 ng/mL | Determined Concentration of test compound in plasma ([3]; 120 min, fumarate salt): 38.0 ng/mL and 18.7 ng/mL and 49.3 ng/mL | Determined Concentration of test compound in plasma, Mean ([3]; 120 min): 35.3 ng/mL | Determined Concentration of test compound in plasma ([3]; Predose): BLQ (Below the lower limit of quantification 0.310 ng/mL) | Determined Concentration of test compound in plasma, Mean ([3]; Predose): BLQ (Below the lower limit of quantification 0.310 ng/mL) | systemic exposure compared to SPL026 [3]: increased systemic exposure | Half-life (min) R1 [4]: 86.1 min | Half-life (min) Mean [4]: 85.0 min | Half-life (min) R3 [4]: 82.6 min | Half-life (min) R4 [4]: 72.1 min

NCc1ccccc1 [Benzylamine, reference compound]
half-life at 5 μM [5]: 22.8 min | Half-life (min) R1 [4]: 24.3 min | Half-life (min) R3 [4]: 21.2 min | Half-life (min) R4 [4]: 23.5 min

O=C(O)/C=C/C(=O)O.[2H]C([2H])([2H])N(C([2H])([2H])[2H])C([2H])([2H])Cc1c[nH]c2ccccc12 [SPL028viii, (96.7%) α,α,-dideutero-N,N-bis-trideutero-dimethyltryptamine fumarate salt]
Mean IAA Cmax [2]: 0.827 ng/mL | Mean IAA tmax [2]: 60 min | Estimated IAA Concentration ([2]; 1 min): BLQ | Estimated IAA Concentration, Mean ([2]; 1 min): BLQ | Estimated IAA Concentration ([2]; 5 min, fumarate salt, 25 mg/kg): BLQ (2×) and 0.223 ng/mL | Estimated IAA Concentration, Mean ([2]; 5 min): <0.281 ng/mL | Estimated IAA Concentration [2, 6]: BLQ (2×) and 0.430 ng/mL | Estimated IAA Concentration, Mean ([2]; 10 min): <0.350 ng/mL | Estimated IAA Concentration [2, 7]: BLQ (2×) and 0.846 ng/mL | Estimated IAA Concentration, Mean ([2]; 15 min): <0.489 ng/mL | Estimated IAA Concentration [2, 8]: BLQ (2×) and 1.04 ng/mL | Estimated IAA Concentration, Mean ([2]; 30 min): <0.544 ng/mL | Estimated IAA Concentration [2, 9]: 0.347 ng/mL and 0.821 ng/mL and 1.0 ng/mL | Estimated IAA Concentration, Mean ([2]; 45 min): 0.733 ng/mL | Estimated IAA Concentration [2, 10]: BLQ and 0.772 ng/mL and 0.883 ng/mL | Estimated IAA Concentration, Mean ([2]; 60 min): 0.827 ng/mL | Estimated IAA Concentration [2, 11]: BLQ and 0.516 ng/mL and 0.747 ng/mL | Estimated IAA Concentration, Mean ([2]; 120 min): 0.631 ng/mL | Estimated IAA Concentration [2, 12]: BLQ and 0.747 ng/mL and 0.673 ng/mL | Estimated IAA Concentration, Mean ([2]; 180 min): 0.710 ng/mL | Estimated IAA Concentration ([2]; Predose): BLQ | Estimated IAA Concentration, Mean ([2]; Predose): BLQ | IAA biosynthesis compared to SPL026 [2]: significant decrease | mean Cmax [3]: 40.77 ng/mL | Determined Concentration of test compound in plasma ([3]; 1 min, fumarate salt): 19.8 ng/mL and BLQ (Below the lower limit of quantification 0.310 ng/mL) (2×) | Determined Concentration of test compound in plasma, Mean ([3]; 1 min): <6.8 ng/mL | Determined Concentration of test compound in plasma ([3]; 5 min, fumarate salt): 14.9 ng/mL and 3.11 ng/mL and 0.506 ng/mL | Determined Concentration of test compound in plasma, Mean ([3]; 5 min): 6.2 ng/mL | Determined Concentration of test compound in plasma ([3]; 10 min, fumarate salt): 18.0 ng/mL and 13.7 ng/mL and 11.8 ng/mL | Determined Concentration of test compound in plasma, Mean ([3]; 10 min): 14.5 ng/mL | Determined Concentration of test compound in plasma ([3]; 15 min, fumarate salt): 20.5 ng/mL and 20.3 ng/mL and 36.2 ng/mL | Determined Concentration of test compound in plasma, Mean ([3]; 15 min): 25.7 ng/mL | Determined Concentration of test compound in plasma ([3]; 30 min, fumarate salt): 9.08 ng/mL and 23.0 ng/mL and 35.7 ng/mL | Determined Concentration of test compound in plasma, Mean ([3]; 30 min): 22.6 ng/mL | Determined Concentration of test compound in plasma ([3]; 45 min, fumarate salt): 5.90 ng/mL and 21.7 ng/mL and 40.0 ng/mL | Determined Concentration of test compound in plasma, Mean ([3]; 45 min): 22.5 ng/mL | Determined Concentration of test compound in plasma ([3]; 60 min, fumarate salt): 4.43 ng/mL and 30.5 ng/mL and 62.0 ng/mL | Determined Concentration of test compound in plasma, Mean ([3]; 60 min): 32.3 ng/mL | Determined Concentration of test compound in plasma ([3]; 120 min, fumarate salt): 13.5 ng/mL and 31.6 ng/mL and 63.8 ng/mL | Determined Concentration of test compound in plasma, Mean ([3]; 120 min): 36.3 ng/mL | Determined Concentration of test compound in plasma ([3]; Predose): BLQ (Below the lower limit of quantification 0.310 ng/mL) | Determined Concentration of test compound in plasma, Mean ([3]; Predose): BLQ (Below the lower limit of quantification 0.310 ng/mL) | systemic exposure compared to SPL026 [3]: increased systemic exposure | Half-life (min) R3 [4]: 92.9 min | Half-life (min) R4 [4]: 131.5† min

NCCc1c[nH]c2ccc(O)cc12 [Serotonin, reference compound]
half-life at 5 μM [5]: 9 min | Half-life (min) R1 [4]: 9.3 min | Half-life (min) R3 [4]: 9.1 min | Half-life (min) R4 [4]: 8.5 min

[2H]C([2H])([2H])N(CCc1c[nH]c2ccccc12)C([2H])([2H])[2H] [SPL028vii]
Half-life (min) Mean [4]: 10.2 min | Half-life (min) R3 [4]: 9.4 min | Half-life (min) R4 [4]: 10.9 min
